Structures can show the parent of a compound that is named as a salt. Where two headings read alike, the source gives them in different places.
Assays:
[1] = tested on: E. coli S30 extract (bacterial protein synthesis); experiment: E. coli S30 extract coupled transcription-translation luciferase assay (inhibition of bacterial protein synthesis); assay type: biochemical; settings: read-out: S30 IC50 (μM/% inhib.)
Outline: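 Cell-free coupled transcription-translation in E. coli S30 circular-DNA extract, with pBESTluc plasmid as template and complete amino acid mix. Eight 2-fold compound dilutions were incubated with the extract 1 h at 37 °C, chilled, then luciferase luminescence was read. % inhibition was taken relative to no-inhibitor wells; no-DNA wells gave background.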

[2] = tested on: S. aureus (Sa); experiment: Broth microdilution minimum inhibitory concentration (MIC); assay type: cell-based; settings: Staphylococcus aureus, read-out: Sa + bicarb MIC
Outline: (§1)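 CLSI broth microdilution with 8 two-fold compound dilutions in CAMHB, or CAMHB plus sodium bicarbonate (6.25 or 25 mM final) or heat-inactivated human serum (0–50%). Inoculum 5×10^4 CFU/well from 0.5 McFarland cultures grown at 35±2° C; tested in triplicate.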

[3] = tested on: E. faecalis (Ef); experiment: as above; assay type: cell-based; settings: Enterococcus faecalis, read-out: Ef + bicarb MIC
Outline: as §1

[4] = tested on: A. baumannii (Ab); experiment: as above; assay type: cell-based; settings: for MIC: Acinetobacter baumannii, read-out: Ab + bicarb MIC
Outline: as §1

[5] = tested on: P. aeruginosa (Pa); experiment: as above; assay type: cell-based; settings: Pseudomonas aeruginosa, read-out: Pa MIC + bicarb
Outline: as §1

[6] = tested on: E. coli (Ec); experiment: as above; assay type: cell-based; settings: Escherichia coli, read-out: E. coli + bicarb MIC
Outline: as §1

[7] = molecular target: Rabbit Reticulocyte Lysate (eukaryotic protein synthesis); experiment: Rabbit reticulocyte lysate luciferase assay (inhibition of eukaryotic protein synthesis); assay type: biochemical; settings: read-out: Rabbit reticulocyte IC50 (μM/% inhib.)
Outline: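 Nuclease-treated rabbit reticulocyte lysate translating luciferase control RNA, with complete amino acids, was incubated at 30° C. for 90 minutes with 2-fold serial compound dilutions. Luminescence was measured after adding luciferase reagent. % inhibition was relative to water controls, with no-RNA wells as background.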

[8] = class by IC50 or % inhibition @ 1 μM
[9] = S. aureus, growth medium supplemented with sodium bicarbonate
[10] = E. faecalis, growth medium supplemented with sodium bicarbonate
[11] = A. baumannii, growth medium supplemented with sodium bicarbonate
[12] = P. aeruginosa, growth medium supplemented with sodium bicarbonate
[13] = E. coli, growth medium supplemented with sodium bicarbonate
[14] = S. aureus, growth medium with sodium bicarbonate
[15] = E. faecalis, growth medium with sodium bicarbonate
[16] = A. baumannii, growth medium with sodium bicarbonate
[17] = P. aeruginosa, growth medium with sodium bicarbonate
[18] = E. coli, growth medium with sodium bicarbonate

SMILES | IC50 [1, 8] [µM] | MIC [2, 9] [µg/mL] | MIC [3, 10] [µg/mL] | MIC [4, 11] [µg/mL] | MIC [5, 12] [µg/mL] | MIC [6, 13] [µg/mL] | IC50 [7, 8] [µM] | MIC [2, 14] [µg/mL] | MIC [3, 15] [µg/mL] | MIC [4, 16] [µg/mL] | MIC [5, 17] [µg/mL] | MIC [6, 18] [µg/mL] | IC50 ([1]; % inhibition @ 1 μM) [µM] | MIC [2] [µg/mL] | MIC [3] [µg/mL] | MIC [4] [µg/mL] | MIC [5] [µg/mL] | MIC [6] [µg/mL] | IC50 ([7]; % inhibition @ 1 μM) [µM] | Ab + bicarb MIC [4, 16]
CC(C)(N)C(=O)N1CCN(C(=O)Nc2ccn(-c3ccc(CN(CCF)[C@H]4CC[C@H](N)CC4)cc3)c(=O)n2)CC1 [Compound 138] | 0.5 to 1 | < 8 | > 32 | > 32 | > 32 | < 8 | > 1 | – | – | – | – | – | – | – | – | – | – | – | – | –
C[C@](N)(CO)C(=O)N1CCN(C(=O)Nc2ccn(-c3ccc(CN(CC4CC4)C4CCC(N)CC4)cc3)c(=O)n2)CC1 (some centres unmarked) [Compound 277] | < 0.5 | – | – | – | – | – | > 1 | < 8 | < 8 | > 32 | > 32 | < 8 | – | – | – | – | – | – | – | –
CCN(Cc1ccc(-n2ccc(NC(=O)N3CCN(C(=O)C(C)(C)N)CC3)nc2=O)cc1C(F)(F)F)C1CCC(N)CC1 (centres unmarked) [Compound 276] | 0.5 to 1 | – | – | – | – | – | > 1 | < 8 | < 8 | > 32 | > 32 | < 8 | – | – | – | – | – | – | – | –
CCC(N)C1CCCN(Cc2ccc(-n3ccc(NC(=O)N4CCN(C(=O)C(C)(C)N)CC4)nc3=O)cc2)C1 (centres unmarked) [Compound 110] | < 0.5 | < 8 | 8 to 32 | > 32 | > 32 | < 8 | > 1 | – | – | – | – | – | – | – | – | – | – | – | – | –
CC(C)(N)C(=O)N1CCN(C(=O)Nc2ccn(-c3ccc(CN(CC4CC4)[C@H]4CC[C@H](N)CC4)cc3)c(=O)n2)CC1 [Compound 130] | < 0.5 | < 8 | < 8 | 8 to 32 | 8 to 32 | < 8 | > 1 | – | – | – | – | – | – | – | – | – | – | – | – | –
CCN(CC1CNC1)C(C)Cc1ccc(-n2ccc(NC(=O)N3CCN(C(=O)C(C)(C)N)CC3)nc2=O)cc1 (centres unmarked) [Compound 167] | > 1 | – | – | – | – | – | > 1 | 8 to 32 | 8 to 32 | > 32 | > 32 | < 8 | – | – | – | – | – | – | – | –
CCN(C(C)Cc1ccc(-n2ccc(NC(=O)N3CCN(C(=O)C(C)(C)N)CC3)nc2=O)cc1)[C@H]1CC[C@H](N)C1 (some centres unmarked) [Compound 164] | < 0.5 | – | – | – | – | – | > 1 | < 8 | < 8 | 8 to 32 | > 32 | < 8 | – | – | – | – | – | – | – | –
CC(C)CN(Cc1ccc(-n2ccc(NC(=O)N3CCN(C(=O)C(C)(C)N)CC3)nc2=O)cc1)[C@H]1CC[C@H](N)CC1 [Compound 129] | < 0.5 | < 8 | < 8 | < 8 | 8 to 32 | < 8 | > 1 | – | – | – | – | – | – | – | – | – | – | – | – | –
CC(C)(N)C(=O)N1CCN(C(=O)Nc2ccn(-c3ccc(CN4CC[C@H](CN)C4)cc3)c(=O)n2)CC1 [Compound 242] | < 0.5 | – | – | – | – | – | > 1 | < 8 | 8 to 32 | > 32 | > 32 | < 8 | – | – | – | – | – | – | – | –
CC(C)(N)C(=O)N1CCN(C(=O)Nc2ccn(-c3ccc(CN(C4CC4)[C@H]4CC[C@H](N)CC4)cc3)c(=O)n2)CC1 [Compound 348, hydrochloride salt] | – | – | – | – | – | – | – | – | – | – | – | – | < 0.5 | 8 to 32 | > 32 | > 32 | > 32 | < 8 | > 1 | –
CC(C)(N)C(=O)N1CCN(C(=O)Nc2ccn(-c3ccc(CCN4CCCC(N)CC4)c(F)c3)c(=O)n2)CC1 (centres unmarked) [Compound 141] | < 0.5 | < 8 | < 8 | > 32 | 8 to 32 | < 8 | > 1 | – | – | – | – | – | – | – | – | – | – | – | – | –
CCN(Cc1ccc(-n2ccc(NC(=O)N3CCN(C(=O)C(C)(C)N)CC3)nc2=O)cc1Cl)C1CCC(N)CC1 (centres unmarked) [Compound 273] | < 0.5 | – | – | – | – | – | > 1 | < 8 | < 8 | < 8 | 8 to 32 | < 8 | – | – | – | – | – | – | – | –
CCN(Cc1ccc(-n2ccc(NC(=O)N3CCN(C(=O)C(C)(C)N)CC3)nc2=O)cc1F)[C@H]1CC[C@H](N)CC1 [Compound 355] | – | – | – | – | – | – | – | – | – | – | – | – | < 0.5 | < 8 | < 8 | > 32 | > 32 | < 8 | > 1 | –
CN(Cc1ccc(-n2ccc(NC(=O)N3CCN(C(=O)C(C)(C)N)CC3)nc2=O)cc1)CC1CNC1 [Compound 111] | 0.5 to 1 | 8 to 32 | > 32 | > 32 | > 32 | 8 to 32 | > 1 | – | – | – | – | – | – | – | – | – | – | – | – | –
CC[C@H]1CN(Cc2ccc(-n3ccc(NC(=O)N4CCN(C(=O)C(C)(C)N)CC4)nc3=O)cc2)CC[C@H]1N [Compound 212] | 0.5 to 1 | – | – | – | – | – | > 1 | < 8 | < 8 | > 32 | > 32 | < 8 | – | – | – | – | – | – | – | –
CC(C)(N)C(=O)N1CCN(C(=O)Nc2ccn(-c3ccc(CN4CC(N5CC(N)C5)C4)cc3)c(=O)n2)CC1 [Compound 380] | – | – | – | – | – | – | – | < 8 | 8 to 32 | > 32 | > 32 | < 8 | < 0.5 | – | – | – | – | – | > 1 | –
CN(Cc1ccc(-n2ccc(NC(=O)N3CCN(C(=O)C(C)(C)N)CC3)nc2=O)cc1F)C1CCC(N)CC1 (centres unmarked) [Compound 278] | < 0.5 | – | – | – | – | – | > 1 | < 8 | < 8 | 8 to 32 | 8 to 32 | < 8 | – | – | – | – | – | – | – | –
CCN(Cc1ccc(-n2ccc(NC(=O)N3CCN(C(=O)C(C)(C)N)CC3)nc2=O)cc1)[C@H]1CC[C@H](N)[C@@H](OC)C1 [Compound 341, hydrochloride salt] | 0.5 to 1 | – | – | – | – | – | > 1 | – | – | – | – | – | – | 8 to 32 | > 32 | > 32 | > 32 | 8 to 32 | – | –
CC(C)(N)C(=O)N1CCN(C(=O)Nc2ccn(-c3ccc(C(N)C(=O)N4CC(N)C4)cc3)c(=O)n2)CC1 (centres unmarked) [Compound 144] | > 1 | > 32 | > 32 | > 32 | > 32 | > 32 | > 1 | – | – | – | – | – | – | – | – | – | – | – | – | –
CC(C)(N)C(=O)N1CCN(C(=O)Nc2ccn(-c3ccc(CNCC4CNC4)cc3)c(=O)n2)CC1 [Compound 374] | – | – | – | – | – | – | – | 8 to 32 | 8 to 32 | – | > 32 | < 8 | < 0.5 | – | – | – | – | – | > 1 | + (An MIC value (μg/mL) that is 32 μg/mL or greater)
